Source: US4599424A, “5-substituted thiadiazole ureas and their use as herbicides” (priority 1979, dated 1986)

System: a variety of crops and weed species
Test: Pre- and post-emergence herbicide tests, overall assessment of TABLES III-VI
Type: in vivo
Conditions: from data of TABLES III-VI
Description: All crop and weed species were planted individually in 3" plastic pots containing potting soil. Four seeds each of corn, cotton, and snapbeans were seeded to a depth equal to the diameter of the seed. All other species were surface seeded and sprinkled with screened soil in an amount sufficient to cover the seed. Immediately after planting, all pots were watered by sub-irrigation in greenhouse trays. Pots for the pre-emergence phase were seeded one day before treatment.
Planting dates for the post-emergence phase were varied so that all seedlings would reach the desired stage of development simultaneously. The proper stage of seedling development for treatment in the post-emergence phase is as follows:
Compounds were tested at rates of application equivalent to 8 lbs. of actual compound per acre in a spray volume of 38 gallons per acre. Spray hood constants required to deliver the above volume are as follows:
Two weeks after treatment, pre- and post-emergence injury or control was visually rated, and the results were as shown in the following tables. Pre-emergence data are provided in TABLE III and post-emergence data are provided in TABLE IV, for compounds having the formula illustrated in TABLE I. Correspondingly, pre-emergence and post-emergence data, respectively, are set forth in TABLES V AND VI, for compounds having the formula illustrated in TABLE II.
Typical of such compounds are: 1, 2, 5, 26, 36, and 37.

## CNC(=O)Nc1nnc(CC(C)C)s1 [Example 21]
  herbicidal effectiveness and selectivity (in words): more selective

## CNC(=O)Nc1nnc(COC)s1 [Example 25]
  herbicidal effectiveness and selectivity (in words): more selective

## CNC(=O)Nc1nnc(SC)s1 [Example 26]
  herbicidal effectiveness and selectivity (in words): extremely effective

## CNC(=O)Nc1nncs1 [Example 35]
  herbicidal effectiveness and selectivity (in words): more selective

## CNC(=O)N(C)c1nnc(C(F)(F)F)s1 [Example 36]
  herbicidal effectiveness and selectivity (in words): extremely effective
